Test results reported in ChEMBL document CHEMBL4673338, “ROCK inhibitors 4: Structure-activity relationship studies of 7-azaindole-based rho kinase (ROCK) inhibitors” (Bioorg Med Chem Lett, 2021).

Assays:
THP-1 = test: Antimigratory activity against human THP-1 cells; type: functional, cell-based
Homo sapiens = species: Homo sapiens; test: Selectivity index, ratio of Ki for PKA (unknown origin) to Ki for ROCK1 (unknown origin)
[1] = target: Rho-associated protein kinase 1 (Homo sapiens, UniProt Q13464); test: Inhibition of ROCK1 (unknown origin)
Rho-associated protein kinase 1, sequence (Q13464 whole entry): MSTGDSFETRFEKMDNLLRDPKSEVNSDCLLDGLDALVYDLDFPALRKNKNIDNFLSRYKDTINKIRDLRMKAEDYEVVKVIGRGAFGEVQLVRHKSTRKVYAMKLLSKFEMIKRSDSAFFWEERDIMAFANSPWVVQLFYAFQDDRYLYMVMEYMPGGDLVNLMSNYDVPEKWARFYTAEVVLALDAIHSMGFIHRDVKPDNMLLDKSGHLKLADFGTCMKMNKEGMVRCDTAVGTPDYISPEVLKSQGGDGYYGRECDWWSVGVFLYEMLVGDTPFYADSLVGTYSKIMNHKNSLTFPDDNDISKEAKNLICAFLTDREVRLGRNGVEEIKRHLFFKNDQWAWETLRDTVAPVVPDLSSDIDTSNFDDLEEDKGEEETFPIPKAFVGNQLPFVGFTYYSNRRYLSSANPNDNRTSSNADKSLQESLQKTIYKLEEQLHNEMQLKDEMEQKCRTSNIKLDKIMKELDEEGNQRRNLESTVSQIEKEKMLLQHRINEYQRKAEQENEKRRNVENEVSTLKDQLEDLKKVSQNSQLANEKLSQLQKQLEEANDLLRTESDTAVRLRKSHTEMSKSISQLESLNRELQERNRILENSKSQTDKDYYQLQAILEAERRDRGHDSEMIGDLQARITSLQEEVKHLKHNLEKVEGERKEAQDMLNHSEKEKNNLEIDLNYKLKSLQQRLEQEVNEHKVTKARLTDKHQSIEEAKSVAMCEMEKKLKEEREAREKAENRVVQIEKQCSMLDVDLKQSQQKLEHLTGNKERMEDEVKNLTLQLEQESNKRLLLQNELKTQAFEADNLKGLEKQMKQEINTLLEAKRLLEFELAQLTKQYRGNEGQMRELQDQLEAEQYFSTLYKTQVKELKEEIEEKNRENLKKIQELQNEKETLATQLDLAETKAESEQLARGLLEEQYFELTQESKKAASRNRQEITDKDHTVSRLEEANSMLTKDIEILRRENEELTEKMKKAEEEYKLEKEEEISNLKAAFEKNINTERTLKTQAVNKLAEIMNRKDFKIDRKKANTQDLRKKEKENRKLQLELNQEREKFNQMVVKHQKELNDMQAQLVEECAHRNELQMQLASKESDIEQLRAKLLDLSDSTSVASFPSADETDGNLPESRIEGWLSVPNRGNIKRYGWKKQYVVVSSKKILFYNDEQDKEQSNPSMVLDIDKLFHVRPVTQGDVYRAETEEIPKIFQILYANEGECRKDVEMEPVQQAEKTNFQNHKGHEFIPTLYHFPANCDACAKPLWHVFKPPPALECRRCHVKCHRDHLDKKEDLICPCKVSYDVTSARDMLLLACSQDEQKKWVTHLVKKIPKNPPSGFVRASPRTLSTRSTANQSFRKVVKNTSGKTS

Cytochrome P450 3A4 = Cytochrome P450 3A4 (Homo sapiens, UniProt P08684); test: Inhibition of CYP3A4 (unknown origin); type: ADME
Cytochrome P450 3A4, sequence (P08684 whole entry): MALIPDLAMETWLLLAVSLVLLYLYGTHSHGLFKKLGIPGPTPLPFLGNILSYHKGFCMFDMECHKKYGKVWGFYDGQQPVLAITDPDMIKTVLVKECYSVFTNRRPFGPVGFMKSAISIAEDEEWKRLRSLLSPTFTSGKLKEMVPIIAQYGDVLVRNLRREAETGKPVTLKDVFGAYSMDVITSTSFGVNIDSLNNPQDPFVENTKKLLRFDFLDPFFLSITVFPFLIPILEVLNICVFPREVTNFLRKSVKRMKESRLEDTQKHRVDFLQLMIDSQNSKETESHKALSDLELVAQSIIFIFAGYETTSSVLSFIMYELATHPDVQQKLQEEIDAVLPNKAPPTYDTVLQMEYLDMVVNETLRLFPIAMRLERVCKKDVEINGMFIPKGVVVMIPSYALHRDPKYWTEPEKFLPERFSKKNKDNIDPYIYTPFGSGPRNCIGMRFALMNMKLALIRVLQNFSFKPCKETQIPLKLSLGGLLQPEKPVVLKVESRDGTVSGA

[2] = AUC(0 to infinity) in rat at 3 mg/kg, po; type: ADME, organism-based; parameters: route oral, time infinity, dose 3 mg/kg; conditions: in vivo
[3] = Cmax in rat at 3 mg/kg, po; type: ADME, organism-based; parameters: route oral, dose 3 mg/kg; conditions: in vivo
[4] = AUC(0 to infinity) in rat at 1 mg/kg, iv; type: ADME, organism-based; parameters: route intravenous, time infinity, dose 1 mg/kg; conditions: in vivo
[5] = Oral bioavailability in rat at 3 mg/kg; type: ADME, organism-based; conditions: in vivo
[6] = Volume of distribution at steady state in rat at 1 mg/kg, iv; type: ADME, organism-based; conditions: in vivo, read-out: Vdss
[7] = Half life in rat at 1 mg/kg, iv; type: ADME, organism-based; conditions: in vivo
[8] = Intrinsic clearance in human Hepatocyte assessed per million cells; type: ADME, tissue-based; conditions: hepatocytes, read-out: CLH
[9] = Intrinsic clearance in rat Hepatocyte assessed per million cells; type: ADME, tissue-based; conditions: hepatocytes, read-out: CLH
[10] = Clearance in rat at 1 mg/kg, iv; type: ADME, organism-based; conditions: in vivo
[11] = target: Voltage-gated inwardly rectifying potassium channel KCNH2 (Homo sapiens, UniProt Q12809); test: Inhibition of human ERG
Voltage-gated inwardly rectifying potassium channel KCNH2, sequence (Q12809 whole entry): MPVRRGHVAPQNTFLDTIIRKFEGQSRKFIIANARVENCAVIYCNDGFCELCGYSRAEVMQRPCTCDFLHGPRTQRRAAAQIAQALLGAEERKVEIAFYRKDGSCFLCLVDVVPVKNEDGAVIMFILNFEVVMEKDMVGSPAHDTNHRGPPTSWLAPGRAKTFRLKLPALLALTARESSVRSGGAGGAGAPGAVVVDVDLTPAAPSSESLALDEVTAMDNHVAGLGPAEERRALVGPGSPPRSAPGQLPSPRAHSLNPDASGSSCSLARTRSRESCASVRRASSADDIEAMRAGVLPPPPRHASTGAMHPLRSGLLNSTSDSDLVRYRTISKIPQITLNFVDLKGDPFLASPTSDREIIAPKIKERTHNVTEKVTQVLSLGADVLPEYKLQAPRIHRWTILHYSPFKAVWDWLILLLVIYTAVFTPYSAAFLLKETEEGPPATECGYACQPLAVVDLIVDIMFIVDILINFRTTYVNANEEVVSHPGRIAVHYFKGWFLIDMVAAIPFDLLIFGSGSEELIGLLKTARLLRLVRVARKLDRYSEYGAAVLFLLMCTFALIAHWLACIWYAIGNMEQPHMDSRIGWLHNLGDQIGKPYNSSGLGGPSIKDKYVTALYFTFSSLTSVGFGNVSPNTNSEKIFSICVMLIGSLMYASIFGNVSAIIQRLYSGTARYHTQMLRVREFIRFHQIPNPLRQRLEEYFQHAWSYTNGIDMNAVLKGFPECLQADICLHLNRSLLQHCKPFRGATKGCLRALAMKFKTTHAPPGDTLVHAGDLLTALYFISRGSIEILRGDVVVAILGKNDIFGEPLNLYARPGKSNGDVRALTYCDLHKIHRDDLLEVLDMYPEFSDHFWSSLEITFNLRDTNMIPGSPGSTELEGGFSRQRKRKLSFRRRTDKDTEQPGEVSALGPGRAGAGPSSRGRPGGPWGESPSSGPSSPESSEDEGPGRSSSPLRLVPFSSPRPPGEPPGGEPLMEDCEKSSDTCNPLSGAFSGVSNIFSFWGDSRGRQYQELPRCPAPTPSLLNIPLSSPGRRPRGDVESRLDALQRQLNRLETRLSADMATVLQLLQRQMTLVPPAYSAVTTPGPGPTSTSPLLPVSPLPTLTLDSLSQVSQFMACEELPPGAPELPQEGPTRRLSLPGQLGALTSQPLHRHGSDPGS

| SMILES | IC50 (THP-1) [nM] | Ratio Ki (Homo sapiens) | Ki [1] [nM] | IC50 (Cytochrome P450 3A4) [nM] | other results |
| --- | --- | --- | --- | --- | --- |
| CN1CCN(CCCOc2cccc(CC(=O)Nc3nc(-c4c[nH]c5nccc(F)c45)cs3)c2)CC1 | 400 | 180 | 10 |  |  |
| CS(=O)(=O)Nc1cccc(CC(=O)Nc2nc(-c3c[nH]c4nccc(F)c34)cs2)c1 | 80 | 31 | 4 | 36000 |  |
| CN1CCN(CCCOc2cccc(CC(=O)Nc3nc(-c4c[nH]c5ncc(F)cc45)cs3)c2)CC1 | 260 | 240 | 5 |  |  |
| CS(=O)(=O)Nc1cccc(CC(=O)Nc2cc(-c3c[nH]c4ncccc34)ncn2)c1 | 820 | 20 | 7 | 100000 |  |
| CS(=O)(=O)Nc1cccc(CC(=O)Nc2nc(-c3c[nH]c4nccc(Cl)c34)cs2)c1 |  | 2 | 92 | 8000 |  |
| CS(=O)(=O)Nc1cccc(CC(=O)Nc2nc(-c3c[nH]c4ncccc34)cs2)c1 | 20 |  |  |  | AUC [2]: 9200 ng·h/mL; Cmax [3]: 900 ng/mL; AUC [4]: 2400 ng·h/mL; F ([5]; 3 mg/kg): 38%; Vd [6]: 0.6 L/kg; half-life [7]: 2 h; hepatocyte CLint [8]: 4 µL/min/1e6 cells; hepatocyte CLint [9]: 6.7 µL/min/1e6 cells; clearance [10]: 7 mL/min/kg |
| CS(=O)(=O)Nc1cccc(CC(=O)Nc2nnc(-c3c[nH]c4ncccc34)s2)c1 | 1520 | 34 | 7 | 100000 |  |
| O=C(Cc1cccc(OCCCC2CCNCC2)c1)Nc1nc(-c2c[nH]c3nccc(F)c23)cs1 | 50 | 143 | 3 | 100000 | AUC(0-inf) [4]: 250 ng·h/mL; IC50 [11]: > 30000 nM; Vd [6]: 19 L/kg; half-life [7]: 5.5 h; hepatocyte CLint [8]: 5.7 µL/min/1e6 cells; clearance [10]: 68 mL/min/kg |
| CS(=O)(=O)Nc1cccc(CC(=O)Nc2nc(-c3c[nH]c4ncc(Cl)cc34)cs2)c1 | 310 | 46 | 11 | 8000 |  |
| CS(=O)(=O)Nc1cccc(CC(=O)Nc2nc(-c3c[nH]c4ncc(O)cc34)cs2)c1 | 1300 | 107 | 7 | 5000 |  |
| Cc1sc(NC(=O)Cc2cccc(NS(C)(=O)=O)c2)nc1-c1c[nH]c2ncccc12 |  | 31 | 52 | 5000 |  |
| CN1CCN(CCOc2cccc(CC(=O)Nc3nc(-c4c[nH]c5ncccc45)cs3)c2)CC1 | 20 |  |  |  | AUC(0-inf) [2]: 600 ng·h/mL; Cmax [3]: 60 ng/mL; AUC(0-inf) [4]: 240 ng·h/mL; bioavailability [5]: 46%; Vd [6]: 14 L/kg; half-life [7]: 3.2 h; hepatocyte CLint [8]: 3.3 µL/min/1e6 cells; hepatocyte CLint [9]: 32 µL/min/1e6 cells; clearance [10]: 71 mL/min/kg |
| O=C(Cc1cccc(OCCCC2CCNCC2)c1)Nc1nc(-c2c[nH]c3ncc(F)cc23)cs1 | 140 | > 480 | 1 |  | AUC(0-inf) [4]: 250 ng·h/mL; IC50 [11]: > 30000 nM; Vd [6]: 8.7 L/kg; half-life [7]: 3.8 h; hepatocyte CLint [8]: 6.3 µL/min/1e6 cells; hepatocyte CLint [9]: 20.5 µL/min/1e6 cells; clearance [10]: 66 mL/min/kg |
| CS(=O)(=O)Nc1cccc(CC(=O)Nc2nc(-c3c[nH]c4ncc(Br)cc34)cs2)c1 | 10000 | 32 | 22 | 35000 |  |
| CN1CCN(CCOc2cccc(CC(=O)Nc3nc(-c4c[nH]c5ncc(F)cc45)cs3)c2)CC1 | 400 | 320 | 3 | 27000 |  |
| CS(=O)(=O)Nc1cccc(CC(=O)Nc2ccc(-c3c[nH]c4ncccc34)s2)c1 | 340 | 39 | 8 | 6000 |  |
| O=C(Cc1cccc(OCCCC2CCNCC2)c1)Nc1nc(-c2c[nH]c3ncccc23)cs1 | 20 |  |  |  | AUC(0-inf) [4]: 130 ng·h/mL; Vd [6]: 24 L/kg; half-life [7]: 5.4 h; clearance [10]: 128 mL/min/kg |
| CS(=O)(=O)Nc1cccc(CC(=O)Nc2nccc(-c3c[nH]c4ncccc34)n2)c1 | 8000 | 23 | 48 | 48000 |  |
| CS(=O)(=O)Nc1cccc(CC(=O)Nc2cc(-c3c[nH]c4ncccc34)cs2)c1 |  | 1 | 100 | 5000 |  |
| CS(=O)(=O)Nc1cccc(CC(=O)Nc2csc(-c3c[nH]c4ncccc34)n2)c1 | 370 | 31 | 10 | 12000 |  |
| CN1CCN(CCCOc2cccc(CC(=O)Nc3nc(-c4c[nH]c5ncccc45)cs3)c2)CC1 |  |  |  |  | AUC(0-inf) [4]: 150 ng·h/mL; Vd [6]: 10 L/kg; half-life [7]: 0.71 h; hepatocyte CLint [8]: 7.5 µL/min/1e6 cells; hepatocyte CLint [9]: 26.8 µL/min/1e6 cells; clearance [10]: 114 mL/min/kg |
| CS(=O)(=O)Nc1cccc(CC(=O)Nc2nc(-c3c[nH]c4ncc(F)cc34)cs2)c1 | 70 | 53 | 3 | 6000 | IC50 [11]: > 30000 nM; hepatocyte CLint [8]: 4.3 µL/min/1e6 cells; hepatocyte CLint [9]: 11.7 µL/min/1e6 cells |
